Measurements as given in patent publication US8399430B2, “Alkylated semi synthetic glycosaminoglycosan ethers, and methods for making and using thereof” (University of Utah Research Foundation, priority 2008, dated 2013).
pIC50: −log10 of the molar value. “Also recorded” adds a separate entry of the source.

Key:
RAGE/S100B = molecular target: T1, RAGE/S100B (Homo sapiens, UniProt Q15109); assay: Solid phase binding assay, RAGE to S100b calgranulin; conditions: Table 2
T1 construct: purchased R&D Systems (Minneapolis, Minn.)
Experimental: (§1) Solid phase binding assays. Solid phase binding assays were used to study the ability of SAGEs to inhibit RAGE binding to its ligands. For studies of the effect of SAGEs on RAGE binding to its ligands, polyvinyl 96-well plates were coated with 5 μg/well of specific ligand (CML-BSA, HMGB-I or S100b calgranulin). Plates were incubated overnight at 4° C. and washed thrice with PBS-0.05% Tween-20 (PBST). Separately, RAGE-Fc chimera (100 μL containing 0.5 μg/ml in PBST-0.1% BSA) was incubated with an equal volume of serially diluted SAGEs (0.001 to 1,000 μg/ml in PBST-BSA) overnight at 4° C. The following day, 50 μL of RAGE-SAGE mix was transferred to each respective ligand-coated well and incubated at 37° C. for 2 h. Wells were then washed four times with PBST. To detect bound RAGE, 50 μL of anti-RAGE antibody (0.5 μg/ml) was added to each well, the mixture was incubated for 1 h at room temperature, and wells were washed again four times with PBST. Horse-radish peroxidase conjugated secondary antibody (1:10,000 antibody dilution in PBST; 50 μL per well) was added, wells were incubated for 1 h at room temperature, and then washed once with PBST. A colorimetric reaction was initiated by addition of 50 μL of tetramethyl benzidine chromogen (TMB single solution chromogen) and terminated after 15 min by addition of 50 μL of 1 N HCl. Absorbance at 450 nm was read using an automated microplate reader.

RAGE = assay: CML-BSA-induced RAGE expression in ARPE-19 cells (immunoblot); format: cell-based, human; conditions: cells grown on CML-BSA
Excerpt: Activated complement and RAGE induce angiogenic and pro-inflammatory signaling in cultured RPE cells. Experiments studying the biology of RAGE in cultured RPE cells using the ARPE-19 human RPE cell line were consucted. As shown in immunoblots (FIG. 17), ARPE-19 cells express at least 4 isoforms of RAGE ranging from 45-50 kDa in cell lysates, and secrete these isoforms into conditioned media. […] Because RAGE ligation activates the transcription factor NF-κB, enhanced expression of RAGE greatly promotes pro-inflammatory signaling. […] This would prevent “feed-forward” pro-inflammatory increases in RAGE expression itself by RAGE ligation.

human leukocyte elastase = molecular target: T2, human leukocyte elastase (Homo sapiens, UniProt P08246); assay: Human leukocyte elastase activity assay, chromogenic substrate; format: biochemical; conditions: for Leukocyte Elastase: Table 2
T2 sequence (P08246 30-267): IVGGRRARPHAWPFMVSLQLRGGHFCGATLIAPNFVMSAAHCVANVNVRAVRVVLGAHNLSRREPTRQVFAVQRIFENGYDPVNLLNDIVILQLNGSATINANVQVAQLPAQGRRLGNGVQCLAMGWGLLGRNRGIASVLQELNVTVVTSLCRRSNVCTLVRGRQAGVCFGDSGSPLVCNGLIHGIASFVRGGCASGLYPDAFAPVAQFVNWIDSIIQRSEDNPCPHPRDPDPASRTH
Excerpt: Enzymatic assays. […] Nat Biotech 26:669-675, 2008).

RAGE/Mac-1 = molecular target: T3, RAGE/Mac-1 (Homo sapiens, UniProt Q15109); assay: U937 monocyte binding to RAGE (cell binding assay); conditions: Table 2; U937 binding to RAGE-Fc
T3 construct: purchased R&D Systems (Minneapolis, Minn.)
Experimental: (§2) Cell Binding Assays. The effect of SAGEs on binding of U937 monocytes to P-selectin or RAGE was studied in high-bind micro plates coated with 8 μg/ml protein A ([…]) in 0.2 M carbonate-bicarbonate buffer (pH 9.4). Plates were washed with phosphate buffered saline containing 1% BSA (PBS-BSA), and P-selectin-Fc or RAGE-Fc chimera (50 μL containing 1 μg) was added to each well and incubated for 2 h at room temperature or overnight at 4° C., respectively. Following incubation, wells were washed twice with PBS-BSA. […] As a negative control, 50 μL of 10 mM EDTA was added to select wells to prevent cell binding through sequestration of calcium. At the end of the incubation period, 50 μL of U937 cells (10^5 cells/well, calcein-labeled according to manufacturer's instructions) were added to each well and plates were incubated an additional 30 min at room temperature. The wells were then washed thrice with PBS, and bound cells were lysed by addition of 100 μL of Tris-TritonX-100 containing buffer. Fluorescence was measured on a microplate reader using excitation of 494 nm and emission of 517 nm.

RAGE/CML-BSA = molecular target: T4, RAGE/CML-BSA (Homo sapiens, UniProt Q15109); assay: Solid phase binding assay, RAGE to CML-BSA; conditions: Table 2
T4 construct: purchased R&D Systems (Minneapolis, Minn.)
Experimental: as §1

ARPE-19 cells = assay: AGE-induced apoptosis of ARPE-19 cells (Live/Dead stain); format: cell-based, human; conditions: AGE-BSA 25 μM, 40 h, test substance 200 μM
Experimental: The ability of AGE products to induce RPE cell apoptosis was investigated. ARPE-19 cells were grown to confluence on round coverslips, then transferred to new dishes for exposure to 25 μM AGE-BSA for 40 h. Apoptosis was then assayed with Molecular Probes Fixable Live/Dead Cell Stain Kit (LI 1101, Eugene, Oreg.). […] Nuclei are stained […] with DAPI; dead cells are stained green. A. BSA control. Some dead cells are noted at the edges of the coverslip, but live and dead cells are interspersed at the interface. B. AGE-BSA (25 μM). Significant cell death is seen around the edges, and the boundary between live and dead cells is stark. C. AGE-BSA (25 μM)+ODSH (200 μM). […] D. AGE-BSA (25 μM)+P-OSMeHA (200 μM) (GM-11 1101). […] Apoptosis appeared to advance inward from the edges of cells cultured on round cover slips. RAGE is prominently expressed in RPE cells where it may be selectively expressed on the basal membrane as in other human epithelial cells. […] In contrast, AGE in drusen, which accumulates between retinal pigment epithelium and Bruch's membrane, would have ready access to basally located RAGE, optimally positioning AGE/RAGE signaling to mediate the localized RPE apoptosis that constitutes so-called “geographic atrophy” in age-related macular degeneration. […]

P-Selectin/PSGL = molecular target: T5, P-Selectin/PSGL (Homo sapiens, UniProt P16109); assay: U937 monocyte binding to P-selectin (cell binding assay); conditions: Table 2; U937 binding to P-selectin-Fc
T5 construct: purchased R&D Systems (Minneapolis, Minn.)
Experimental: as §2

RAGE/HMGB1 = molecular target: T6, RAGE/HMGB1 (Homo sapiens, UniProt Q15109); assay: Solid phase binding assay, RAGE to HMGB-1 (amphoterin); conditions: Table 2
T6 construct: purchased R&D Systems (Minneapolis, Minn.)
Experimental: as §1

LL-37 injected skin = assay: SAGE topical treatment LL-37 rosacea model; format: in vivo, Balb/c mice; conditions: topical administration
Experimental: SAGE topical treatment rosacea model. Balb/c mice were shaved […] area of skin on the back. We then began topical application of a hyaluronan-cased emollient containing 5% SAGEs (active emollient) or hyaluronic acid based emollient alone to this area of skin every 12 hours. Twenty-four hours later, we injected 40 μL of vehicle (PBS) or cationic peptide (at 320 μM concentration) subcutaneously into the shaved skin in the manner described previously. Injections and topical emollient applications were repeated every 12 h thereafter. Forty-eight hours after the initial injection (four injections in total), animals were lightly anesthetized as described previously. […] The intensity of erythema was assessed as a redness score (from 1 to 5), and the area of erythema was measured with calipers. […]
Myeloperoxidase (MPO) assay. […] Tissue MPO activity was measured using a method by Suzuki et. al. (Suzuki K, Ota H, Sasagawa S, Sakatani T, Fujikura T. Assay method for myeloperoxidase in human polymorphonuclear leukocytes. Anal Biochem 132:345-352, 1983) as modified by Young et. al. (Young J M, Spires D A, Bedord C J, Wagner B, Ballaron S J, De oung L M. The mouse ear inflammatory response to typical arachidonic acid. J Invest Dermatol 82:367-371, 1984). […] The homogenate was transferred quantitatively to a microcentrifuge tube with an additional 0.75 mL HTAB in PBS. […]

[1] = molecular target: T7, Hageman factor (Factor XII) (Homo sapiens, UniProt P00748)
T7 sequence (P00748 20-615): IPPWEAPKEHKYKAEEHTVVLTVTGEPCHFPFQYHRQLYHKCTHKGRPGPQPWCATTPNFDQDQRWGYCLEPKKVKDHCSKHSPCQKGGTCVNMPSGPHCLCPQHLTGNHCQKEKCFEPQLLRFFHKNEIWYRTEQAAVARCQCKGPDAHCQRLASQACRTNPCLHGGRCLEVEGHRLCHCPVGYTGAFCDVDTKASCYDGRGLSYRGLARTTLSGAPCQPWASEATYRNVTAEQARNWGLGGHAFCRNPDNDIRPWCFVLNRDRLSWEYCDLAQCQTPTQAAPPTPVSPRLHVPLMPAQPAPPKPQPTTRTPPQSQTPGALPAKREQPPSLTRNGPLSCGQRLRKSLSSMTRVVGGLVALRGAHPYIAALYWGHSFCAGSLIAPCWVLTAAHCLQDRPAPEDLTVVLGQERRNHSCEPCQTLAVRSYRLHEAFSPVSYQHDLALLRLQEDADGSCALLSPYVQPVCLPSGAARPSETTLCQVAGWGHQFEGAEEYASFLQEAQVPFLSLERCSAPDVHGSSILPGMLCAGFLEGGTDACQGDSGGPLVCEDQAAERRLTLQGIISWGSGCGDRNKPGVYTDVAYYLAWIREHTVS
Experimental: Enzymatic assays. […] Pooled human plasma (5 μl) was incubated with 100 μl of SAHA (0.1 to 1000 μg/ml) in 0.05 M HEPES containing Triton X-100 for 5 min at 5° C.
SAGEs were screened for their ability to stimulate intrinsic coagulation (activation of Hageman factor). Pooled human plasma was incubated with heparin or low molecular weight (Lmw) sulfated and fluoroalkylated HAs (Lmw-OSFHA-1, Lmw-OSFHA-2) and amidolytic activity was determined using the substrate D-cyclohydrotyrosyl-Gly-Arg-p-NA.

[2] = tested on: human neonatal epidermal keratinocytes; assay: Keratinocyte proliferation assay; format: cell-based; conditions: high molecular weight derivatives, 100 μg/ml, FIG. 8
Experimental: Fourth, SAGEs are potent inhibitors of the proliferation of human keratinocytes. In these assays human neonatal epidermal keratinocytes were cultured in the presence and absence of SAGEs or other inhibitors, and proliferation was measured by adding a dye that is reduced in direct proportion to the number of viable cells present.

nHEK cells = assay: Cytotoxicity (MTS); format: cell-based, human; conditions: up to 10 mg/ml

T3 sequence (Q15109 with tags, fused parts or gaps limits assumed): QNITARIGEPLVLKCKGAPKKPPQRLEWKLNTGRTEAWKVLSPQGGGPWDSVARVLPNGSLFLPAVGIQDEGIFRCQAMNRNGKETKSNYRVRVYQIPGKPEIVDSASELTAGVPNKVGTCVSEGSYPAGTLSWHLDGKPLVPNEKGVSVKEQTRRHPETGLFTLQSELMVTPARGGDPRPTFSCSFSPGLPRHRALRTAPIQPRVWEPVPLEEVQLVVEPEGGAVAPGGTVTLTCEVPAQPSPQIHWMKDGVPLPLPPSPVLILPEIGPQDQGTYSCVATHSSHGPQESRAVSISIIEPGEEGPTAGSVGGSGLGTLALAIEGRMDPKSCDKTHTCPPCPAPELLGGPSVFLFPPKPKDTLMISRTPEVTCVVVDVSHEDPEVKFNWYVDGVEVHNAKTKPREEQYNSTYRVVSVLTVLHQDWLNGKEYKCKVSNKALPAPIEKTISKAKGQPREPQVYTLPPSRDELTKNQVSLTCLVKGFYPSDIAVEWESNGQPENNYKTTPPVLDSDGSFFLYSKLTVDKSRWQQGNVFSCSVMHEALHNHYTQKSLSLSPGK
T1 sequence (Q15109 with tags, fused parts or gaps limits assumed): as above
T4 sequence (Q15109 with tags, fused parts or gaps limits assumed): as above
T5 sequence (P16109 with tags, fused parts or gaps limits assumed): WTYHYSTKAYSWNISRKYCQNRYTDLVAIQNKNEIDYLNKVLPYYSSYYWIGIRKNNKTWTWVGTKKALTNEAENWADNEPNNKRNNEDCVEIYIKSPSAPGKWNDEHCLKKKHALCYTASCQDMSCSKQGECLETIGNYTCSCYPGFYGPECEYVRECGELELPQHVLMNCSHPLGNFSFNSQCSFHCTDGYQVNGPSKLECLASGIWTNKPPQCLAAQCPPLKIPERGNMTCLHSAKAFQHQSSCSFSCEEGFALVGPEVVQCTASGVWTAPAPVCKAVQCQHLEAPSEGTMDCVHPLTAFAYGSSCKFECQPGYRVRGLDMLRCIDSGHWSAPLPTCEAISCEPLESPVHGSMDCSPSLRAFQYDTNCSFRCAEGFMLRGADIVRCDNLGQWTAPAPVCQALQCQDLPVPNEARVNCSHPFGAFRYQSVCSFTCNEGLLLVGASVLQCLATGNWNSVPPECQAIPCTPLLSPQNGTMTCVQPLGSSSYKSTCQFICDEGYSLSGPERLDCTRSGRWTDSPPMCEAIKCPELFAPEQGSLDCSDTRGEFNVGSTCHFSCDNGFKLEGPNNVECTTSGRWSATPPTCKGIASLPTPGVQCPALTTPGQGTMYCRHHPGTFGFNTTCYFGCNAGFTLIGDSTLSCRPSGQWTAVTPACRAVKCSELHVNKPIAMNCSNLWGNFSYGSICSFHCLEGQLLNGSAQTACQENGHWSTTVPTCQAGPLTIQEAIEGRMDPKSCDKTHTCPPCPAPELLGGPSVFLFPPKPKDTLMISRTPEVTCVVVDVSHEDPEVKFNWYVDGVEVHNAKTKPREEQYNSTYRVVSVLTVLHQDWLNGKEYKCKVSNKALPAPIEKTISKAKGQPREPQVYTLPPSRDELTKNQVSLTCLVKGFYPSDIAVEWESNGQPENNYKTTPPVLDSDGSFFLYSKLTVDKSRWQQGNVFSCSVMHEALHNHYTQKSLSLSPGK
T6 sequence (Q15109 with tags, fused parts or gaps limits assumed): as the sequence (Q15109 with tags, fused parts or gaps limits assumed) above

| RAGE/S100B (RAGE/S100B) [µg/mL] | Leukocyte Elastase (human leukocyte elastase) [µg/mL] | RAGE/Mac-1 (RAGE/Mac-1) [µg/mL] | RAGE/CML-BSA (RAGE/CML-BSA) [µg/mL] | P-Selectin/PSGL (P-Selectin/PSGL) [µg/mL] | RAGE/HMGB1 (RAGE/HMGB1) [µg/mL] | Hageman Factor [1] [µg/mL] | pIC50 (human leukocyte elastase; FIG. 4, read-out: IC50 for HLE) | Substance | up-regulation of RAGE expression (RAGE) | AGE-induced apoptosis (ARPE-19 cells) | inflammation and MPO activities, SAGE vs. HA (LL-37 injected skin) | inhibition of keratinocyte proliferation [2] | toxicity to nHEK cells (nHEK cells) |
| --- | --- | --- | --- | --- | --- | --- | --- | --- | --- | --- | --- | --- | --- |
| 4.2 | 0.22 | 0.09 | 8.6 | 1.1 | 0.23 |  |  | 2-0, 3-0 desulfated heparin [ODSH, reference compound] | prevented up-regulation of RAGE expression | Apoptosis is reduced; also recorded: inhibited |  |  |  |
| 14.6 | 0.185 |  |  | 12.048 |  | 400 |  | P—OSFHA-1(DS 1) [GM-231101] |  |  |  |  |  |
| 4.557 | 0.375 |  |  | 8.958 |  | 400 |  | P—OSFHA-2(DS 1) [GM-331101] |  |  |  |  |  |
| 2.28 | 0.353 |  | 1.682 |  |  | 40 |  | P—OSFHA-2(DS 2) [GM-331201] |  |  |  |  |  |
| 31.069 | 0.285 | 0.51 | 6.09 | 5.61 | 2.68 |  | 8.46 | P—OSMeHA(DS 1) [GM-131101] |  |  |  | less active | non-toxic |

Continued, substance first:

| Substance | RAGE/S100B (RAGE/S100B) [µg/mL] | Leukocyte Elastase (human leukocyte elastase) [µg/mL] | RAGE/Mac-1 (RAGE/Mac-1) [µg/mL] | RAGE/CML-BSA (RAGE/CML-BSA) [µg/mL] | P-Selectin/PSGL (P-Selectin/PSGL) [µg/mL] | RAGE/HMGB1 (RAGE/HMGB1) [µg/mL] | Hageman Factor [1] [µg/mL] | pIC50 (human leukocyte elastase; FIG. 4, read-out: IC50 for HLE) | up-regulation of RAGE expression (RAGE) | AGE-induced apoptosis (ARPE-19 cells) | inflammation and MPO activities, SAGE vs. HA (LL-37 injected skin) | inhibition of keratinocyte proliferation [2] | toxicity to nHEK cells (nHEK cells) |
| --- | --- | --- | --- | --- | --- | --- | --- | --- | --- | --- | --- | --- | --- |
| Hyaluronic Acid [HA, reference compound] |  |  |  |  |  |  |  |  |  |  | did not alleviate inflammation |  |  |
| P—OSFHA-1(DS 2) [GM-231201] | 8.82 | 0.487 | 28.4 | 2.579 | 0.126 |  | 400 |  |  |  |  |  |  |
| P—OSMeHA(DS 2) [GM-131201] | 0.06 | 0.42 | 0.3 | 0.044 | 0.5 |  | 0.4 |  |  |  |  |  |  |
